Source: patent US9833497B2, “Human originated EGF domain proteins and use of the same” (CHENGDU SOURCEBIO LIMITED-LIABILITY COMPANY, priority 2013, dated 2017)

Columns and labels:
Assay type in all cases: cell-based
Enterobacter cloacae = assay: MIC against Gram-negative bacteria: Enterobacter cloacae; conditions: for MIC E. cloacae / MIC against E. cloacae: 5×10^5 CFU/mL; for MIC against E. cloacae: Enterobacter cloacae
Description: (§1) 1. Gram-negative bacteria, such as E. coli BL21, Pseudomonas aeruginosa, Klebsiella pneumonia, Enterobacter cloacae, Aeromonas hydrophila, Citrobacter diversus, Moraxella catarrhalis, Proteus mirabilis, Proteus vulgaris, Serratia marcescens, etc were streaked on solid LB medium and cultured respectively. Then, typical clones were picked, inoculated into common liquid LB medium respectively, and cultured at 37° C. with shaking at 185 rpm until the McFarland specific turbidity was 0.5. The bacterial culture of each of Gram-negative bacteria was centrifuged at 4000×g for 3 min, the supernatant was discarded, and the thalli were resuspended with fresh LB medium.
(§2) 2. The above-mentioned bacterial suspensions were diluted and inoculated into 96-well plates with the final concentration of the bacterial suspension being 5×10^5 CFU/mL per well.
(§3) 3. Each of the purified human-originated EGF domain proteins (PRT1 to PRT1498 in Table 1) was added to each of the above wells and subjected to two-fold serial dilution in concentration. Three parallel wells were set up for each concentration in the gradient.
(§4) 4. The above-mentioned 96-well plates were placed and cultured at 37° C. in shaking incubator shaking at 175 rpm. […] The minimal inhibitory concentration MIC is defined as the lowest concentration of the recombinant protein at which there is no growth of the bacteria.

Proteus vulgaris = assay: MIC against Gram-negative bacteria: Proteus vulgaris; conditions: for MIC P. vulgaris / MIC against P. vulgaris: 5×10^5 CFU/mL; for MIC against P. vulgaris: Proteus vulgaris
Description: as §1, §2, §3, §4

Klebsiella pneumonia = assay: MIC against Gram-negative bacteria: Klebsiella pneumonia; conditions: for MIC K. pneumonia / MIC against K. pneumonia: 5×10^5 CFU/mL; for MIC against K. pneumonia: Klebsiella pneumonia
Description: as §1, §2, §3, §4

Serratia marcescens = assay: MIC against Gram-negative bacteria: Serratia marcescens; conditions: for MIC S. marcescens / MIC against S. marcescens: 5×10^5 CFU/mL; for MIC against S. marcescens: Serratia marcescens
Description: as §1, §2, §3, §4

E. coli DH5α = assay: Antibacterial activity: MIC and growth curve against E. coli DH5α in 96-well plate; conditions: minimal inhibitory concentration against E. coli DH5α; 96-well plate, 5×10^5 CFU/mL, 37° C., judged after 8 h
Description: 1. E. coli DH5α was exemplified. E. coli DH5α was streaked and cultured on LB solid medium. Then, a typical clone was picked and inoculated into common LB liquid medium, cultured at 37° C. with shaking at 185 rpm until the logarithmic growth phase was reached (OD600 of about 0.5). The bacterial culture was centrifuged at 4000×g for 3 min, the supernatant was discarded, and the thalli were resuspended with fresh LB medium.
2. The above-mentioned bacterial suspension was diluted and inoculated into a 96-well plate with the total volume of 100 μL per well and a bacterial count of 5×10^5 CFU/mL.
3. The recombinant protein hF VII-EGF1 was added to the above-mentioned wells with the final protein concentration in the well of the highest protein concentration being 50 μg/mL. Basing on this final concentration, a two-fold serial dilution was performed till a protein concentration gradient consisting of 50, 25, and 12.5 μg/mL was set up. Three parallel wells were set up for each concentration in the gradient.
as §4, with “plate was” for “plates were”, “rpm. Samples were taken every 30 min, the absorbance values were determined at 600 nm wavelength under a ultra violet spectrophotometer, and an inhibition curve was plotted.” for “rpm.”
According to the experimental procedures in Example 14, the minimal inhibitory concentrations (MIC, μg/mL) of the other human-originated EGF domain proteins (PRT2 to PRT1498 in Table 1) for E. coli DH5α were determined.

Proteus mirabilis = assay: MIC against Gram-negative bacteria: Proteus mirabilis; conditions: for MIC P. mirabilis / MIC against P. mirabilis: 5×10^5 CFU/mL; for MIC against P. mirabilis: Proteus mirabilis
Description: as §1, §2, §3, §4

Aeromonas hydrophila = assay: MIC against Gram-negative bacteria: Aeromonas hydrophila; conditions: for MIC A. hydrophila / MIC against A. hydrophila: 5×10^5 CFU/mL; for MIC against A. hydrophila: Aeromonas hydrophila
Description: as §1, §2, §3, §4

Citrobacter diversus = assay: MIC against Gram-negative bacteria: Citrobacter diversus; conditions: for MIC C. diversus / MIC against C. diversus: 5×10^5 CFU/mL; for MIC against C. diversus: Citrobacter diversus
Description: as §1, §2, §3, §4

Moraxella catarrhalis = assay: MIC against Gram-negative bacteria: Moraxella catarrhalis; conditions: for MIC M. catarrhalis / MIC against M. catarrhalis: 5×10^5 CFU/mL; for MIC against M. catarrhalis: Moraxella catarrhalis
Description: as §1, §2, §3, §4

Pseudomonas aeruginosa = assay: MIC against Gram-negative bacteria: Pseudomonas aeruginosa; conditions: for MIC P. aeruginosa / MIC against P. aeruginosa: 5×10^5 CFU/mL; for MIC against P. aeruginosa: Pseudomonas aeruginosa
Description: as §1, §2, §3, §4

E. coli BL21 = assay: MIC against Gram-negative bacteria: E. coli BL21; conditions: for MIC E. coli BL21 / MIC against E. coli BL21: 5×10^5 CFU/mL
Description: as §1, §2, §3, §4

[1] = E. coli BL21, 10 h cultivation at 37° C.

In the case of “PRT641 (QAEECGILNGCENGRCVRVQEGYTCDCFDGYHLDTAK; listed as Homo sapiens)”, the “MIC E. cloacae” value (Enterobacter cloacae; 96-well plate, 37° C., 10 h) is reported as 50 µg/mL, the “MIC P. vulgaris” value (Proteus vulgaris; 96-well plate, 37° C., 10 h) is reported as 12.5 µg/mL and the “MIC K. pneumonia” value (Klebsiella pneumonia; 96-well plate, 37° C., 10 h) is reported as 25 µg/mL. The “MIC S. marcescens” value (Serratia marcescens; 96-well plate, 37° C., 10 h) was 50 µg/mL, the MIC (E. coli DH5α) was 50 µg/mL and the “MIC P. mirabilis” value (Proteus mirabilis; 96-well plate, 37° C., 10 h) was 50 µg/mL. The “MIC A. hydrophila” value (Aeromonas hydrophila; 96-well plate, 37° C., 10 h) was 25 µg/mL, the “MIC C. diversus” value (Citrobacter diversus; 96-well plate, 37° C., 10 h) was 12.5 µg/mL and the “MIC M. catarrhalis” value (Moraxella catarrhalis; 96-well plate, 37° C., 10 h) was 25 µg/mL. The “MIC P. aeruginosa” value (Pseudomonas aeruginosa; 96-well plate, 37° C., 10 h) was 12.5 µg/mL and the “MIC E. coli BL21” value (E. coli BL21; 96-well plate, 37° C., 10 h) was 25 µg/mL.

For “PRT684 (APVLCPLICHNGGVCVKPDRCLCPPDFAGKFCQ; listed as Homo sapiens)”, the “MIC E. cloacae” value (Enterobacter cloacae; 96-well plate, 37° C., 10 h) was 12.5 µg/mL, the “MIC P. vulgaris” value (Proteus vulgaris; 96-well plate, 37° C., 10 h) was 50 µg/mL and the “MIC K. pneumonia” value (Klebsiella pneumonia; 96-well plate, 37° C., 10 h) was 25 µg/mL. For the same substance, the “MIC S. marcescens” value (Serratia marcescens; 96-well plate, 37° C., 10 h) was 12.5 µg/mL, the MIC (E. coli DH5α) was 12.5 µg/mL and the “MIC P. mirabilis” value (Proteus mirabilis; 96-well plate, 37° C., 10 h) was 25 µg/mL. The “MIC A. hydrophila” value (Aeromonas hydrophila; 96-well plate, 37° C., 10 h) was 50 µg/mL, the “MIC C. diversus” value (Citrobacter diversus; 96-well plate, 37° C., 10 h) was 25 µg/mL and the “MIC M. catarrhalis” value (Moraxella catarrhalis; 96-well plate, 37° C., 10 h) was 12.5 µg/mL. The “MIC P. aeruginosa” value (Pseudomonas aeruginosa; 96-well plate, 37° C., 10 h) was 50 µg/mL and the “MIC E. coli BL21” value (E. coli BL21; 96-well plate, 37° C., 10 h) was 25 µg/mL.

For “PRT1493 (QQAECPGGCRNGGFCNERRICECPDGFHGPHCE; listed as Homo sapiens)”, the “MIC against E. cloacae” value (Enterobacter cloacae; 10 h cultivation at 37° C.) was 12.5 µg/mL, the “MIC against P. vulgaris” value (Proteus vulgaris; 10 h cultivation at 37° C.) was 25 µg/mL and the “MIC against K. pneumonia” value (Klebsiella pneumonia; 10 h cultivation at 37° C.) was 12.5 µg/mL. For the same substance, the “MIC against S. marcescens” value (Serratia marcescens; 10 h cultivation at 37° C.) was 50 µg/mL, the MIC (E. coli DH5α) was 100 µg/mL and the “MIC against P. mirabilis” value (Proteus mirabilis; 10 h cultivation at 37° C.) was 50 µg/mL. The “MIC against A. hydrophila” value (Aeromonas hydrophila; 10 h cultivation at 37° C.) was 50 µg/mL, the “MIC against C. diversus” value (Citrobacter diversus; 10 h cultivation at 37° C.) was 50 µg/mL and the “MIC against M. catarrhalis” value (Moraxella catarrhalis; 10 h cultivation at 37° C.) was 25 µg/mL. For the same substance, the “MIC against P. aeruginosa” value (Pseudomonas aeruginosa; 10 h cultivation at 37° C.) was 12.5 µg/mL and the “MIC against E. coli BL21” value (E. coli BL21; [1]) was 25 µg/mL.

For “PRT1210 (SVNPCSSKPCLYGGTCVVDNGGFVCQCRGLYTGQRCQ; listed as Homo sapiens)”, the “MIC against E. cloacae” value (Enterobacter cloacae; 96-well plate, 37° C., 10 h) was 25 µg/mL, the “MIC against P. vulgaris” value (Proteus vulgaris; 96-well plate, 37° C., 10 h) was 25 µg/mL and the “MIC against K. pneumonia” value (Klebsiella pneumonia; 96-well plate, 37° C., 10 h) was 12.5 µg/mL. For the same substance, the “MIC against S. marcescens” value (Serratia marcescens; 96-well plate, 37° C., 10 h) was 12.5 µg/mL, the MIC (E. coli DH5α) was 25 µg/mL and the “MIC against P. mirabilis” value (Proteus mirabilis; 96-well plate, 37° C., 10 h) was 12.5 µg/mL. The “MIC against A. hydrophila” value (Aeromonas hydrophila; 96-well plate, 37° C., 10 h) was 25 µg/mL, the “MIC against C. diversus” value (Citrobacter diversus; 96-well plate, 37° C., 10 h) was 12.5 µg/mL and the “MIC against M. catarrhalis” value (Moraxella catarrhalis; 96-well plate, 37° C., 10 h) was 25 µg/mL. For the same substance, the “MIC against P. aeruginosa” value (Pseudomonas aeruginosa; 96-well plate, 37° C., 10 h) was 25 µg/mL and the “MIC against E. coli BL21” value (E. coli BL21; E. coli BL21, 96-well plate, 37° C., 10 h) was 12.5 µg/mL.

In the case of “PRT1017 (NPDNCVSHQCQNGGTCQDGLDTYTCLCPETWTGWDCS; listed as Homo sapiens)”, the MIC (Enterobacter cloacae; E. cloacae, 10 h cultivation at 37° C.) is reported as 12.5 µg/mL, the MIC (Proteus vulgaris; P. vulgaris, 10 h cultivation at 37° C.) is reported as 12.5 µg/mL and the MIC (Klebsiella pneumonia; K. pneumonia, 10 h cultivation at 37° C.) is reported as 12.5 µg/mL. It also gave an MIC (Serratia marcescens; S. marcescens, 10 h cultivation at 37° C.) of 50 µg/mL, an MIC (E. coli DH5α) of 50 µg/mL and an MIC (Proteus mirabilis; P. mirabilis, 10 h cultivation at 37° C.) of 50 µg/mL. The MIC (Aeromonas hydrophila; A. hydrophila, 10 h cultivation at 37° C.) was 12.5 µg/mL, the MIC (Citrobacter diversus; C. diversus, 10 h cultivation at 37° C.) was 12.5 µg/mL and the MIC (Moraxella catarrhalis; M. catarrhalis, 10 h cultivation at 37° C.) was 12.5 µg/mL. It also gave an MIC (Pseudomonas aeruginosa; P. aeruginosa, 10 h cultivation at 37° C.) of 12.5 µg/mL and an MIC (E. coli BL21; [1]) of 12.5 µg/mL.
